Three compounds from US20230399289A1, “ITACONIC ACID DERIVATIVES” (Sitryx Therapeutics Limited, priority 2020, published 2023) can be followed below.

Series [1] concerns hepatocytes. Description: Hepatocyte stability assay, mouse. The class given is in vitro ADME. As to conditions: 10 μM compound, 0.5×10^6 cells/mL, 60 min.
Series [2] is described as follows: Hepatocyte stability assay, mouse. The class given is in vitro ADME. As to conditions: cryopreserved hepatocytes, 10 μM compound, 0.5×10^6 cells/mL, 60 min, read-out: T½.
Series [3] relates to hepatocytes. Description: Hepatocyte stability assay, human. As to conditions: 10 μM compound, 0.5×10^6 cells/mL, 60 min. The class given is in vitro ADME.
Series [4] in a line: Hepatocyte stability assay, human. The class given is in vitro ADME. As to conditions: cryopreserved hepatocytes, 10 μM compound, 0.5×10^6 cells/mL, 60 min, read-out: T½.
Series [5] has as its system NRF2 (nuclear factor erythroid 2-related factor 2). Description: NRF2 +/−GSH activation assay (DiscoverX PathHunter NRF2 translocation kit, U2OS cells). In kind it is cell-based. As to conditions: Homo sapiens; for Emax: U2OS, normalised to dimethyl fumarate high control; for EC50: U2OS PathHunter cells, 6 hours.
Series [6] relates to IL-1β cytokine output from THP-1 cells. Kind of series: THP-1 AlphaLISA IL-1β cytokine assay. The class given is cell-based. As to conditions: Homo sapiens, THP-1, differentiated THP-1 cells, LPS 24 hr then Nigericin 1 hour.
The subject of series [7] is IL-6 cytokine output from THP-1 cells. Kind of series: THP-1 AlphaLISA IL-6 cytokine assay. The class given is cell-based. As to conditions: Homo sapiens, THP-1, differentiated THP-1 cells, LPS 24 hr then Nigericin 1 hour. How it is done: Measuring Inhibitory Effects on IL-1β and IL-6 Cytokine Output from THP-1s
The cytokine inhibition profiles of compounds of formula (I) were determined in a differentiated THP-1 cell assay. All assays were performed in RPMI-1640 growth medium (Gibco), supplemented with 10% fetal bovine serum (FBS; Gibco), 1% penicillin-streptomycin and 1% sodium pyruvate unless specified otherwise. The IL-1β and IL-6 cytokine inhibition assays were each run in a background of differentiated THP-1 cells as described below. All reagents described were from Sigma-Aldrich unless specified otherwise. Compounds were prepared as 10 mM DMSO stocks.
THP-1 cells were expanded as a suspension up to 80% confluence in appropriate growth medium. Cells were harvested, suspended, and treated with an appropriate concentration of phorbol 12-myristate 13-acetate (PMA) over a 72 hr period (37° C./5% CO2).
Following 72 hrs of THP-1 cell incubation, cellular medium was removed and replaced with fresh growth media containing 1% of FBS. Working concentrations of compounds were prepared separately in 10% FBS treated growth medium and pre-incubated with the cells for 30 minutes (37° C./5% CO2). Following the 30 minute compound pre-incubation, THP-1s were treated with an appropriate concentration of LPS and the THP-1s were subsequently incubated for a 24 hr period (37° C./5% CO2). An appropriate final concentration of Nigericin was then dispensed into the THP-1 plates and incubated for 1 hour (37° C./5% CO2) before THP-1 supernatants were harvested and collected in separate polypropylene 96-well holding plates.
Reagents from each of the […] and IL-6 commercial kits (Perkin Elmer) were prepared and run according to the manufacturer's instructions. Subsequently, fluorescence signal detection in a microplate reader was measured (EnVision® Multilabel Reader, Perkin Elmer).
Percentage inhibition was calculated per cytokine by normalising the sample data to the high and low controls used within each plate (+/−LPS respectively). Percentage inhibition was then plotted against compound concentration and the 50% inhibitory concentration (IC50) was determined from the resultant concentration-response curve.

The mark [8] stands for this setting: +GSH, 30 minute compound-GSH pre-incubation.

`C=C(CC(=O)OC1(c2ccc(C(F)(F)F)cc2)CCC1)C(=O)OCCC(=O)O` [Example 22, 3-((2-methylene-4-oxo-4-(1-(4-(trifluoromethyl)phenyl)cyclobutoxy)butanoyl)oxy)propanoic acid]: the results for the CIint in the series with hepatocytes [1] and with hepatocytes [3] were 128 μL min^−1 10^−6 cells and 9 μL min^−1 10^−6 cells, respectively. Moreover, the half-life at 10 μM in series [2] was 0.2 h; in series [4], 2.6 h. Moreover, the Emax in series [5] (+GSH) is 183%; in series [5] (−GSH) it was 225%. Further, the EC50 in series [5] (setting [8]) came to 22.3 µM; in series [5] (−GSH) it was 14.9 µM. Also, the IC50 was found to be 10.3 µM in series [6] and 11.2 µM in series [7].

As to `C=C(CC(=O)OC1(c2ccc(C(F)(F)F)cc2)CCC1)C(=O)OC1(CC(=O)O)COC1` [Example 33, 2-(3-((2-methylene-4-oxo-4-(1-(4-(trifluoromethyl)phenyl)cyclobutoxy)butanoyl)oxy)oxetan-3-yl)acetic acid], the CIint with hepatocytes [1] worked out at 82 μL min^−1 10^−6 cells; with hepatocytes [3], 7 μL min^−1 10^−6 cells. The results for the half-life at 10 μM in series [2] and in series [4] were 0.3 h and 3.37 h, respectively. In addition, the Emax was determined as 118% in series [5] (+GSH) and 162% in series [5] (−GSH). Further, the EC50 was 20.7 µM in series [5] (setting [8]) and 8.4 µM in series [5] (−GSH). For the same compound, the IC50 in series [6] stood at 2.4 µM; in series [7], 5.7 µM.

For `C=C(CC(=O)OC1(c2ccc(SC(F)(F)F)cc2)CCC1)C(=O)OCC(=O)O` [Example 34, 2-((2-methylene-4-oxo-4-(1-(4-((trifluoromethyl)thio)phenyl)cyclobutoxy)butanoyl)oxy)acetic acid], the CIint is listed as 74 μL min^−1 10^−6 cells with hepatocytes [1] and 11 μL min^−1 10^−6 cells in the series with hepatocytes [3]. In addition, the half-life at 10 μM in series [2] turned out to be 0.383 h; in series [4], 1.93 h. The maximum response (Emax) turned out to be 2.8% in series [5] (+GSH) and 0% in series [5] (−GSH). For the same compound, the EC50 was above 100 µM in series [5] (setting [8]) and above 54.8 µM in series [5] (−GSH). Besides, the IC50 in series [6] was determined as 5.1 µM; in series [7], 2.7 µM.
